ChEMBL document CHEMBL1201862, “PubChem BioAssay data set” (2004)
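Each compound was tested at five concentrations against cells in 96-well plates for 48 hours. At the GI50, growth is halved.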 Active and inactive are the calls of the source. Cut-off read from the data, not from the text of the source: active = GI50 up to about 1.1 µM and inactive = higher.

What was measured:
Assay in all cases: NCI tumour cell line growth inhibition, 48 h
KM12 = tested on: KM12
COLO 205 = tested on: COLO 205
LOX IMVI = tested on: LOX IMVI
U-251 = tested on: U-251
MDA-N = tested on: MDA-N
RXF 393 = tested on: RXF 393
RPMI-8226 = tested on: RPMI-8226
OVCAR-8 = tested on: OVCAR-8
MOLT-4 = tested on: MOLT-4
ACHN = tested on: ACHN
SN12C = tested on: SN12C
A549 = tested on: A549
HL-60 = tested on: HL-60
786-0 = tested on: 786-0
NCI-H460 = tested on: NCI-H460
SNB-75 = tested on: SNB-75
NCI-H226 = tested on: NCI-H226
UO-31 = tested on: UO-31
NCI-H522 = tested on: NCI-H522
OVCAR-4 = tested on: OVCAR-4
SW-620 = tested on: SW-620
UACC-257 = tested on: UACC-257
SF-295 = tested on: SF-295
EKVX = tested on: EKVX
SNB-19 = tested on: SNB-19
IGROV-1 = tested on: IGROV-1
MCF7 = tested on: MCF7
MDA-MB-231 = tested on: MDA-MB-231
HCT-15 = tested on: HCT-15
BT-549 = tested on: BT-549
HT-29 = tested on: HT-29
CAKI-1 = tested on: CAKI-1
SK-MEL-28 = tested on: SK-MEL-28
SF-539 = tested on: SF-539
PC-3 = tested on: PC-3
MDA-MB-435 = tested on: MDA-MB-435
TK-10 = tested on: TK-10
CCRF-CEM = tested on: CCRF-CEM
NCI-H23 = tested on: NCI-H23
K562 = tested on: K562
HOP-92 = tested on: HOP-92
HOP-62 = tested on: HOP-62
NCI/ADR-RES = tested on: NCI/ADR-RES
DU-145 = tested on: DU-145
A498 = tested on: A498
SK-OV-3 = tested on: SK-OV-3
SK-MEL-5 = tested on: SK-MEL-5
HCC 2998 = tested on: HCC 2998
M14 = tested on: M14
Hs-578T = tested on: Hs-578T
SK-MEL-2 = tested on: SK-MEL-2
HCT-116 = tested on: HCT-116
OVCAR-5 = tested on: OVCAR-5
T47D = tested on: T47D
UACC-62 = tested on: UACC-62
Malme-3M = tested on: Malme-3M
OVCAR-3 = tested on: OVCAR-3
SF-268 = tested on: SF-268

With C=CCc1[nH]c2c(OCc3ccccc3)cc(N(CC=C)C(C)=O)cc2c1C the GI50 (KM12) was 13.3 µM (inactive), the GI50 (COLO 205) was 15.2 µM (inactive) and the GI50 (LOX IMVI) was 12.5 µM (inactive). The GI50 (U-251) was 12.8 µM (inactive), the GI50 (MDA-N) was 14.4 µM (inactive) and the GI50 (RXF 393) was 11.2 µM (inactive). The GI50 (RPMI-8226) was 12.1 µM (inactive), the GI50 (OVCAR-8) was 13.2 µM (inactive) and the GI50 (MOLT-4) was 5.77 µM (inactive). The GI50 (ACHN) was 12.8 µM (inactive), the GI50 (SN12C) was 16 µM (inactive) and the GI50 (A549) was 13.4 µM (inactive). For the same compound, the GI50 (HL-60) was 12.8 µM (inactive), the GI50 (786-0) was 14.2 µM (inactive) and the GI50 (NCI-H460) was 14.8 µM (inactive). The GI50 (SNB-75) was 10.7 µM (inactive), the GI50 (NCI-H226) was 17.6 µM (inactive) and the GI50 (UO-31) was 9.08 µM (inactive). The GI50 (NCI-H522) was 13 µM (inactive), the GI50 (OVCAR-4) was 8.79 µM (inactive) and the GI50 (SW-620) was 13.9 µM (inactive). For the same compound, the GI50 (UACC-257) was 16 µM (inactive), the GI50 (SF-295) was 13 µM (inactive) and the GI50 (EKVX) was 8.45 µM (inactive). For the same compound, the GI50 (SNB-19) was 12.8 µM (inactive), the GI50 (IGROV-1) was 14.4 µM (inactive) and the GI50 (MCF7) was 12.4 µM (inactive). The GI50 (MDA-MB-231) was 10.7 µM (inactive), the GI50 (HCT-15) was 12.9 µM and the GI50 (BT-549) was 15.8 µM (inactive). For the same compound, the GI50 (HT-29) was 8.04 µM (inactive), the GI50 (CAKI-1) was 15.5 µM (inactive) and the GI50 (SK-MEL-28) was 16.9 µM (inactive). For the same compound, the GI50 (SF-539) was 16.3 µM (inactive), the GI50 (PC-3) was 6.76 µM (inactive) and the GI50 (MDA-MB-435) was 17.1 µM (inactive). The GI50 (TK-10) was 16.4 µM (inactive), the GI50 (CCRF-CEM) was 22.3 µM (inactive) and the GI50 (NCI-H23) was 13.9 µM (inactive). For the same compound, the GI50 (K562) was 10.1 µM (inactive), the GI50 (HOP-92) was 12.7 µM (inactive) and the GI50 (HOP-62) was 17.1 µM (inactive). For the same compound, the GI50 (NCI/ADR-RES) was 14.3 µM (inactive), the GI50 (DU-145) was 14.1 µM (inactive) and the GI50 (A498) was 12.5 µM (inactive). For the same compound, the GI50 (SK-OV-3) was 16.4 µM (inactive), the GI50 (SK-MEL-5) was 11.8 µM (inactive) and the GI50 (HCC 2998) was 15.1 µM (inactive). The GI50 (M14) was 10.1 µM (inactive), the GI50 (Hs-578T) was 14.2 µM (inactive) and the GI50 (SK-MEL-2) was 12.4 µM (inactive). The GI50 (HCT-116) was 12.3 µM (inactive), the GI50 (OVCAR-5) was 14.1 µM (inactive) and the GI50 (T47D) was 3.79 µM (inactive). The GI50 (UACC-62) was 14 µM (inactive), the GI50 (Malme-3M) was 16.4 µM (inactive) and the GI50 (OVCAR-3) was 14.3 µM (inactive). The GI50 (SF-268) was 12.2 µM (inactive).

For Cc1cc2nc(N3C(=O)/C(=C/c4ccc(Oc5ccccc5)cc4)N=C3c3ccccc3)sc2cc1C, the GI50 (KM12) was 26.1 µM (inactive), the GI50 (COLO 205) was 20.9 µM (inactive) and the GI50 (LOX IMVI) was 44.6 µM (inactive). For the same compound, the GI50 (U-251) was 64.6 µM (inactive), the GI50 (MDA-N) was 25.2 µM (inactive) and the GI50 (RXF 393) was 58.9 µM (inactive). For the same compound, the GI50 (RPMI-8226) was 24.4 µM (inactive), the GI50 (OVCAR-8) was 71.8 µM (inactive) and the GI50 (MOLT-4) was 30.2 µM (inactive). For the same compound, the GI50 (ACHN) was > 100 µM (inactive), the GI50 (SN12C) was > 100 µM (inactive) and the GI50 (A549) was 48.2 µM (inactive). For the same compound, the GI50 (HL-60) was 23.6 µM (inactive), the GI50 (786-0) was 50.8 µM (inactive) and the GI50 (NCI-H460) was 32.1 µM (inactive). For the same compound, the GI50 (SNB-75) was 62.2 µM (inactive), the GI50 (UO-31) was 50.7 µM (inactive) and the GI50 (NCI-H522) was 24.6 µM (inactive). The GI50 (OVCAR-4) was 45.7 µM (inactive), the GI50 (SW-620) was 28.2 µM (inactive) and the GI50 (UACC-257) was 29.2 µM (inactive). For the same compound, the GI50 (SF-295) was 33 µM (inactive), the GI50 (EKVX) was 42.6 µM (inactive) and the GI50 (SNB-19) was > 100 µM (inactive). The GI50 (IGROV-1) was 37.4 µM (inactive), the GI50 (MCF7) was 24.2 µM (inactive) and the GI50 (MDA-MB-231) was > 100 µM (inactive). The GI50 (HCT-15) was 29.4 µM, the GI50 (BT-549) was 43 µM (inactive) and the GI50 (HT-29) was 31.6 µM (inactive). The GI50 (CAKI-1) was 50.5 µM (inactive), the GI50 (SK-MEL-28) was 69.7 µM (inactive) and the GI50 (PC-3) was 40 µM (inactive). The GI50 (MDA-MB-435) was 19.5 µM (inactive), the GI50 (TK-10) was 59.4 µM (inactive) and the GI50 (CCRF-CEM) was 26.7 µM (inactive). The GI50 (NCI-H23) was 42.7 µM (inactive), the GI50 (K562) was 24.5 µM (inactive) and the GI50 (HOP-92) was 95.5 µM (inactive). For the same compound, the GI50 (HOP-62) was > 100 µM (inactive), the GI50 (NCI/ADR-RES) was 26.2 µM (inactive) and the GI50 (DU-145) was > 100 µM (inactive). For the same compound, the GI50 (A498) was 54.7 µM (inactive), the GI50 (SK-OV-3) was > 100 µM (inactive) and the GI50 (SK-MEL-5) was 30.8 µM (inactive). The GI50 (HCC 2998) was 40 µM (inactive), the GI50 (M14) was 51.8 µM (inactive) and the GI50 (Hs-578T) was 52.2 µM (inactive). The GI50 (SK-MEL-2) was 23.3 µM (inactive), the GI50 (HCT-116) was 40.6 µM (inactive) and the GI50 (OVCAR-5) was 58.1 µM (inactive). For the same compound, the GI50 (T47D) was 42.3 µM (inactive), the GI50 (UACC-62) was 35.4 µM (inactive) and the GI50 (Malme-3M) was 70.6 µM (inactive). For the same compound, the GI50 (OVCAR-3) was 59.3 µM (inactive) and the GI50 (SF-268) was 63.8 µM (inactive).
